This is an account of results in patent publication US7265155B2 (NBS Pharmaceuticals, Inc., priority 1996, dated 2007).

Each structure is given as a SMILES string. Entries after “also recorded” stand apart in the source; their conditions may differ.

Assay [1] has as its system amygdala-kindled rat. Kind of assay: Antiepileptogenic effect during kindling in the amygdala-kindled rat. It counts as in vivo. The following applies: daily 500 mg/kg p.o. The method, then:
In these studies, groups of adult, male Sprague-Dawley rats weighing at least 230 gr were implanted with a teflon-coated bipolar electrode sterotaxically placed in the anterior basolateral nucleus of the amygdala under ketarine and xylazine anesthesia. The electrode was implanted at the following coordinates with Bregma as zero: AP-2.2 mm, ML-4.7 mm, DV-8.7 mm. Chronic treatment with vehicle (0.5% carboxymethylcellulose, p.o.) or isovaleramide (500 mg/kg, p.o., […] of body weight) was initiated after a seven-day postoperative recovery period. […] After 11 treatment days, all animals were permitted a 7-day drug- and stimulus-free period. […] Seizure score and afterdischarge duration were recorded after each stimulation. Seizure score was classified according to Racine scale (1972): stage 0, no abnormal behavior; stage 1, mouth or facial movements; stage 2, mouth or facial movements and head nodding; stage 3, stage 2 and forelimb clonus; stage 4, stage 3 and rearing; stage 5, stage 4 and falling. A score of 2-3 represents a focal seizure while a score of 4-5 represents secondarily generalized seizures. Afterdischarge duration was the total duration of the amygdala electroencephalogram spikes with an amplitude of at least twice the amplitude of the prestimulus recording and a frequency greater than 1/sec. […]

Assay [2] deals with amygdala-kindled rat. Kind of assay: Anticonvulsant activity in the fully amygdala-kindled rat. Format: in vivo. The note with it: oral dosing, sixty minutes before stimulation. The method, then: Isovaleramide was evaluated for its ability to block the expression of amygdala-kindled seizures in fully kindled rats. Isovaleramide was evaluated for its ability to block the kindled motor seizure (seizure scores of 4 and 5) and limbic behavioral seizures (seizure score between 1-3) as well as to affect changes in afterdischarge duration.
Adult, male Sprague-Dawley rats weighing at least 230 gr were implanted with a teflon-coated bipolar electrode sterotaxically placed in the anterior basolateral nucleus of the amygdala under ketamine and xylazine anesthesia. The electrode was implanted at the following coordinates with Bregma as zero: AP-2.2 mm, ML-4.7 mm, DV-8.7 mm. After a one-week recovery period, animals were kindled to Stage 5 behavioral seizures using a stimulus consisting of a 50 Hz, 1 sec train of 1 ms biphasic 150 uA pulses that were delivered once daily until 10 consecutive stage 5 seizures were evoked. Testing of isovaleramide was initiated after a one-week, stimulus-free period. On the compound test day, rats displaying a stage 5 seizure were divided into multiple treatment groups (i.e., vehicle control and isovaleramide treatment). Sixty minutes after oral dosing, individual rats received a 300 uA, 1 sec duration stimulation and their seizure score and afterdischarge duration recorded. Seizure score was classified according to Racine (Electroencephalogr. Clin. Neurophysiol. 32:281-294, (1972): stage 0: no abnormal behavior; stage 1: mouth or facial movements; stage 2: mouth or facial movements and head nodding; stage 3: stage 2 and forelimb clonus; stage 4: stage 3 and rearing; stage 5: stage 4 and falling. A score of 2-3 represents a focal seizure while a score of 4-5 represents secondarily generalized seizures. Afterdischarge duration was the total duration of the amygdala electroencephalogram spikes with an amplitude of at least twice the amplitude of the prestimulus recording and a frequency greater than 1/sec.

As for `CC(C)CC(N)=O` [Isovaleramide, isovaleramide], in the assay on amygdala-kindled rat [1], the “seizure development over time” value is “eventually developed full stage 5 seizures”. In addition, in the assay with amygdala-kindled rat [1] (30-minute pretreatment), the “increases in seizure score and afterdischarge duration during electrical kindling” value is “delayed the increases in both seizure score and afterdischarge duration; also recorded: elicited a delay in the rate of increase in both seizure score and afterdischarge duration”. In the assay on amygdala-kindled rat [2], the afterdischarge duration entry is on record as “decreased”; the “generalized seizure responses of fully kindled rats” value is “effective in reducing in a dose-dependent manner the generalized seizure responses; also recorded: effective in reducing, in a dose-dependent manner, the generalized seizure responses”; the mean seizure score entry is reported as “decreased”.
